Assays:
Format in all cases: in vivo
[1] = tested on: wheat (Triticum aestivum); test: Test A postemergence, wheat
Text: (§1) Seeds of plant species selected from barnyardgrass (Echinochloa crus-galli), kochia (Kochia scoparia), ragweed (common ragweed, Ambrosia elatior), ryegrass, Italian (Italian ryegrass, Lolium multiflorum), foxtail, giant (giant foxtail, Setaria faberii), and pigweed (Amaranthus retroflexus), were planted into a blend of loam soil and sand and treated preemergence with a directed soil spray using test chemicals formulated in a non-phytotoxic solvent mixture which included a surfactant.
(§2) At the same time, plants selected from these weed species and also wheat (Triticum aestivum), corn (Zea mays), blackgrass (Alopecurus myosuroides), and galium (catchweed bedstraw, Galium aparine), were planted in pots containing the same blend of loam soil and sand and treated with postemergence applications of test chemicals formulated in the same manner. Plants ranged in height from 2 to 10 cm and were in the one- to two-leaf stage for the postemergence treatment. Treated plants and untreated controls were maintained in a greenhouse for approximately 10 days, after which time all treated plants were compared to untreated controls and visually evaluated for injury. Plant response ratings, summarized in Table A, are based on a 0 to 100 scale where 0 is no effect and 100 is complete control. A dash (—) response means no test result.

[2] = tested on: ragweed (common ragweed, Ambrosia elatior); test: Test A postemergence, ragweed
Text: as §1, §2

[3] = tested on: barnyardgrass (Echinochloa crus-galli); test: Test A preemergence, barnyardgrass; conditions: Preemergence, 0 to 100 scale (0 no effect, 100 complete control)
Text: as §1, §2

[4] = tested on: barnyardgrass (Echinochloa crus-galli); test: Test B flooded paddy test, barnyardgrass; conditions: 250 g ai/ha, Flood; visual rating after 13 to 15 days; scale 0 to 100, 0 is no effect, 100 is complete control
Experimental: (§3) Plant species in the flooded paddy test selected from rice (Oryza sativa), sedge, umbrella (small-flower umbrella sedge, Cyperus difformis), ducksalad (Heteranthera limosa), and barnyardgrass (Echinochloa crus-galli) were grown to the 2-leaf stage for testing. At time of treatment, test pots were flooded to 3 cm above the soil surface, treated by application of test compounds directly to the paddy water, and then maintained at that water depth for the duration of the test. Treated plants and controls were maintained in a greenhouse for 13 to 15 days, after which time all species were compared to controls and visually evaluated. Plant response ratings, summarized in Table B, are based on a scale of 0 to 100 where 0 is no effect and 100 is complete control. A dash (—) response means no test result.

rice (Oryza sativa) = test: Test B flooded paddy test, rice; conditions: 250 g ai/ha, Flood; visual rating after 13 to 15 days; scale 0 to 100, 0 is no effect, 100 is complete control
Experimental: as §3

[5] = tested on: ryegrass, Italian (Italian ryegrass, Lolium multiflorum); test: Test A preemergence, Italian ryegrass; conditions: Preemergence, 0 to 100 scale (0 no effect, 100 complete control)
Text: as §1, §2

[6] = tested on: pigweed (Amaranthus retroflexus); test: Test A preemergence, pigweed; conditions: Preemergence, 0 to 100 scale (0 no effect, 100 complete control)
Text: as §1, §2

[7] = tested on: galium (catchweed bedstraw, Galium aparine); test: Test A postemergence, galium
Text: as §1, §2

[8] = tested on: ragweed (common ragweed, Ambrosia elatior); test: Test A preemergence, ragweed; conditions: Preemergence, 0 to 100 scale (0 no effect, 100 complete control)
Text: as §1, §2

[9] = tested on: blackgrass (Alopecurus myosuroides); test: Test A postemergence, blackgrass
Text: as §1, §2

[10] = tested on: barnyardgrass (Echinochloa crus-galli); test: Test A postemergence, barnyardgrass
Text: as §1, §2

[11] = tested on: pigweed (Amaranthus retroflexus); test: Test A postemergence, pigweed
Text: as §1, §2

[12] = tested on: ducksalad (Heteranthera limosa); test: Test B flooded paddy test, ducksalad; conditions: 250 g ai/ha, Flood; visual rating after 13 to 15 days; scale 0 to 100, 0 is no effect, 100 is complete control
Experimental: as §3

[13] = tested on: foxtail, giant (giant foxtail, Setaria faberii); test: Test A postemergence, giant foxtail
Text: as §1, §2

[14] = tested on: foxtail, giant (giant foxtail, Setaria faberii); test: Test A preemergence, giant foxtail; conditions: Preemergence, 0 to 100 scale (0 no effect, 100 complete control)
Text: as §1, §2

kochia (Kochia scoparia) [15] = test: Test A preemergence, kochia; conditions: Preemergence, 0 to 100 scale (0 no effect, 100 complete control)
Text: as §1, §2

corn (Zea mays) = test: Test A postemergence, corn
Text: as §1, §2

kochia (Kochia scoparia) [16] = test: Test A postemergence, kochia
Text: as §1, §2

[17] = tested on: sedge, umbrella (small-flower umbrella sedge, Cyperus difformis); test: Test B flooded paddy test, umbrella sedge; conditions: 250 g ai/ha, Flood; visual rating after 13 to 15 days; scale 0 to 100, 0 is no effect, 100 is complete control
Experimental: as §3

[18] = tested on: ryegrass, Italian (Italian ryegrass, Lolium multiflorum); test: Test A postemergence, Italian ryegrass
Text: as §1, §2

[19] = 125 g ai/ha, postemergence, 0 to 100 scale, 0 is no effect, 100 is complete control, approximately 10 days
[20] = 500 g ai/ha, postemergence, 0 to 100 scale, 0 is no effect, 100 is complete control, approximately 10 days
[21] = Postemergence, 31 g ai/ha, 0 to 100 scale (0 no effect, 100 complete control)
[22] = 31 g ai/ha, postemergence, 0 to 100 scale, 0 is no effect, 100 is complete control, approximately 10 days

SMILES	Plant response rating, Wheat [1, 19]	Plant response rating, Ragweed [2, 19]	Plant response rating, Barnyardgrass ([3]; 125 g ai/ha)	Plant response rating, Barnyardgrass [4]	Plant response rating, Rice (rice (Oryza sativa))	Plant response rating, Ryegrass, Italian ([5]; 125 g ai/ha)	Plant response rating, Pigweed ([6]; 125 g ai/ha)	Plant response rating, Galium [7, 19]	Plant response rating, Ragweed ([8]; 125 g ai/ha)	Plant response rating, Blackgrass [9, 19]	Plant response rating, Barnyardgrass [10, 19]	Plant response rating, Pigweed [11, 19]	Plant response rating, Ducksalad [12]	Plant response rating, Foxtail, Giant [13, 19]	Plant response rating, Foxtail, Giant ([14]; 125 g ai/ha)	Plant response rating, Kochia (kochia (Kochia scoparia) [15]; 125 g ai/ha)	Plant response rating, Corn (corn (Zea mays); [19])	Plant response rating, Kochia (kochia (Kochia scoparia) [16]; [19])	Plant response rating, Sedge, Umbrella [17]	Plant response rating, Ryegrass, Italian [18, 19]	other results
CC(C)CCCOc1c(Br)cccc1Oc1ncc(Cl)cn1 [Compound 11]	0	0	20	0	0	0	0	70	0	0	10	60	0	20	90	0	30	20	0	0	Plant response rating, Wheat [1, 20]: 20; Plant response rating, Ragweed [2, 20]: 0; Plant response rating, Barnyardgrass ([3]; 500 g ai/ha): 90; Plant response rating, Ryegrass, Italian ([5]; 500 g ai/ha): 30; Plant response rating, Pigweed ([6]; 500 g ai/ha): 80; Plant response rating, Galium [7, 20]: 100; Plant response rating, Ragweed ([8]; 500 g ai/ha): 0; Plant response rating, Blackgrass [9, 20]: 40; Plant response rating, Barnyardgrass [10, 20]: 90; Plant response rating, Pigweed [11, 20]: 100; Plant response rating, Foxtail, Giant [13, 20]: 60; Plant response rating, Foxtail, Giant ([14]; 500 g ai/ha): 100; Plant response rating, Kochia (kochia (Kochia scoparia) [15]; 500 g ai/ha): 0; Plant response rating, Corn (corn (Zea mays); [20]): 30; Plant response rating, Kochia (kochia (Kochia scoparia) [16]; [20]): 90; Plant response rating, Ryegrass, Italian [18, 20]: 20
FCCCOc1c(F)cccc1Oc1ncc(Cl)cn1 [Compound 26]	0	0	40	0	0	0	90	70	0	0	10	60	30	10	50	10	0	60	0	0	Plant response rating, Wheat [1, 20]: 0; Plant response rating, Ragweed [2, 20]: 20; Plant response rating, Barnyardgrass ([3]; 500 g ai/ha): 100; Plant response rating, Ryegrass, Italian ([5]; 500 g ai/ha): 20; Plant response rating, Pigweed ([6]; 500 g ai/ha): 100; Plant response rating, Galium [7, 20]: 50; Plant response rating, Ragweed ([8]; 500 g ai/ha): 20; Plant response rating, Blackgrass [9, 20]: 50; Plant response rating, Barnyardgrass [10, 20]: 60; Plant response rating, Pigweed [11, 20]: 90; Plant response rating, Foxtail, Giant [13, 20]: 70; Plant response rating, Foxtail, Giant ([14]; 500 g ai/ha): 100; Plant response rating, Kochia (kochia (Kochia scoparia) [15]; 500 g ai/ha): 100; Plant response rating, Corn (corn (Zea mays); [20]): 10; Plant response rating, Kochia (kochia (Kochia scoparia) [16]; [20]): 90; Plant response rating, Ryegrass, Italian [18, 20]: 0
C#Cc1cccc(Oc2ncc(Cl)cn2)c1OCCCF [Compound 71]	0	0	0	0	0	0	0	0	0	0	0	0	0	0	0	0	0	0	0	0	Plant response rating, Wheat [1, 21]: 0; Plant response rating, Ragweed [2, 21]: 0; Plant response rating, Barnyardgrass ([3]; 31 g ai/ha): 0; Plant response rating, Ryegrass, Italian ([5]; 31 g ai/ha): 0; Plant response rating, Pigweed ([6]; 31 g ai/ha): 0; Plant response rating, Galium [7, 21]: 0; Plant response rating, Ragweed ([8]; 31 g ai/ha): 0; Plant response rating, Blackgrass [9, 21]: 0; Plant response rating, Barnyardgrass [10, 21]: 0; Plant response rating, Pigweed [11, 21]: 0; Plant response rating, Foxtail, Giant [13, 21]: 0; Plant response rating, Foxtail, Giant ([14]; 31 g ai/ha): 0; Plant response rating, Kochia (kochia (Kochia scoparia) [15]; 31 g ai/ha): 0; Plant response rating, Corn (corn (Zea mays); [21]): 0; Plant response rating, Kochia (kochia (Kochia scoparia) [16]; [21]): 0; Plant response rating, Ryegrass, Italian [18, 21]: 0
FC(F)=C(F)CCOc1c(Br)cccc1Oc1ncc(Cl)cn1 [Compound 38]	0	10	70	0	0	10	100	50	0	10	30	80	75	40	100	70	20	70	100	10	Plant response rating, Wheat [1, 22]: 0; Plant response rating, Ragweed [2, 22]: 0; Plant response rating, Barnyardgrass ([3]; 31 g ai/ha): 10; Plant response rating, Ryegrass, Italian ([5]; 31 g ai/ha): 0; Plant response rating, Pigweed ([6]; 31 g ai/ha): 0; Plant response rating, Galium [7, 22]: 10; Plant response rating, Ragweed ([8]; 31 g ai/ha): 0; Plant response rating, Blackgrass [9, 22]: 0; Plant response rating, Barnyardgrass [10, 22]: 10; Plant response rating, Pigweed [11, 22]: 40; Plant response rating, Foxtail, Giant [13, 22]: 10; Plant response rating, Foxtail, Giant ([14]; 31 g ai/ha): 30; Plant response rating, Kochia (kochia (Kochia scoparia) [15]; 31 g ai/ha): 0; Plant response rating, Corn (corn (Zea mays); [22]): 10; Plant response rating, Kochia (kochia (Kochia scoparia) [16]; [22]): 20; Plant response rating, Ryegrass, Italian [18, 22]: 0

Reference: US10485235B2, “Aryloxypyrimidinyl ethers as herbicides” (FMC Corporation, priority 2015, dated 2019)
